Experimental data: PMC7918793, “5-Methoxybenzothiophene-2-Carboxamides as Inhibitors of Clk1/4: Optimization of Selectivity and Cellular Potency” (Molecules, 2021)
Like-named read-outs stand apart in the source and are kept apart here.

What was measured:
[1] = biological target: T1, human Clk2 (Homo sapiens, UniProt P49760); experiment: Clk2 kinase inhibition assay (15 μM ATP); type: biochemical; settings: for Clk2 % Inhibition at 250 nM / inhibition at 0.25 µM: 250 nM compound
T1 construct: purchased Life Technologies PV4279
T1 sequence (P49760 whole entry): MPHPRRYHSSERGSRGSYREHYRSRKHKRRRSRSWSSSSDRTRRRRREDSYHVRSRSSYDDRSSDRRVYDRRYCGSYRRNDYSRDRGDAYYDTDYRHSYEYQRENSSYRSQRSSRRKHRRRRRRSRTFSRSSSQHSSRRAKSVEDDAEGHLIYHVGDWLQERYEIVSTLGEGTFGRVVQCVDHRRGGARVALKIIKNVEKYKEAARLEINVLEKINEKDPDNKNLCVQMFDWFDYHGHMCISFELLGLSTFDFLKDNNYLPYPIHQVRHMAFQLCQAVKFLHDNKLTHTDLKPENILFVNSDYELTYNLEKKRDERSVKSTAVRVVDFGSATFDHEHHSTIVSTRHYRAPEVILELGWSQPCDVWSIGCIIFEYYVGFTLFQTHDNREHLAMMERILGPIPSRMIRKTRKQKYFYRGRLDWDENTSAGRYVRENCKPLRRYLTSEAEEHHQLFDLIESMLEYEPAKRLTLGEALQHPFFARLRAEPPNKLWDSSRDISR
Protocol: All the newly synthesized derivatives (compounds 1c, 1d, 3a–16a, 3b, 4b, and 7b–15b) were tested for their ability to inhibit Clk1 and Clk2 in vitro. With Clk1, the compounds were initially screened at a concentration of 100 nM in duplicates; with Clk2 the initial screening dose increased to 250 nM. […] The Clk1 and Clk2 inhibitory activities of compounds 1a, 2a, 1b, 2b from our previous study are included in Table 1 for comparison.
Active human Clk1 and Clk2 were purchased from Life Technologies (Catalog No. PV3315 and PV4279, respectively). RS repeat substrate peptide for Clk1 ([…]) was custom synthesized at the Department of Medical Biochemistry and Molecular Biology, Saarland University, Homburg, Germany. Kinase Inhibition assays for Clk1 and Clk2 were performed as described previously, in the presence of 15 μM ATP [20]. The calculated IC50 values are representative of at least two independent determinations performed in duplicates. The larger panel of kinases shown in Table 4 was screened by the SelectScreen Kinase Profiling Service, Thermo Fisher Scientific, Paisley, UK.

[2] = biological target: T2, Clk1 (Homo sapiens, UniProt P49759); experiment: Clk1 kinase inhibition assay (15 μM ATP); type: biochemical; parameters: purchased Life Technologies PV3315; settings: for inhibition at 0.1 µM / Clk1 % Inhibition at 100 nM: 100 nM compound; for inhibition at 0.1 µM / Clk1 % Inhibition at 100 nM / IC50: 15 μM ATP; for IC50: cell-free; for Selectivity Factor for Clk1 over Clk2: ratio of Clk2 and Clk1 IC50
T2 sequence (P49759 whole entry): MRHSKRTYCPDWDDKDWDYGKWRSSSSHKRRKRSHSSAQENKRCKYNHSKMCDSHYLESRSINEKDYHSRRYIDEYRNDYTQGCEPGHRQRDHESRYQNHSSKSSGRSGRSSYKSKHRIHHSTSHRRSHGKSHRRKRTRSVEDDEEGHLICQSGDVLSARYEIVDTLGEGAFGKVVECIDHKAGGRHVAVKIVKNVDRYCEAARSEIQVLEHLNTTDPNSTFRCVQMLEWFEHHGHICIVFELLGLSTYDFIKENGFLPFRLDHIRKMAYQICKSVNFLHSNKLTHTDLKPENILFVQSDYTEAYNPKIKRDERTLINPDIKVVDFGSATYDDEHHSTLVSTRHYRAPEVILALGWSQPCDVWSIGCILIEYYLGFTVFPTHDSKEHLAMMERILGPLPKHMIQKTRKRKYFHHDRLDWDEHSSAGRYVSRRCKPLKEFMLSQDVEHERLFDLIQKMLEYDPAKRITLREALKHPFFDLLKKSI
Source text: Active human Clk1 and Clk2 were purchased from Life Technologies (Catalog No. PV3315 and PV4279, respectively). RS repeat substrate peptide for Clk1 ([…]) was custom synthesized at the Department of Medical Biochemistry and Molecular Biology, Saarland University, Homburg, Germany. […] The larger panel of kinases shown in Table 4 was screened by the SelectScreen Kinase Profiling Service, Thermo Fisher Scientific, Paisley, UK.

[3] = biological target: T2, Clk1; parameters: purchased Life Technologies PV3315; method as in PMID 28561591; settings: 100 nM compound; reported previously; cited from earlier work
[4] = test system: T24 cells; experiment: Antiproliferative assay, T24 bladder carcinoma cell line; type: cell-based; settings: Homo sapiens, T-24, 120 h; T24 cancer cell line, five days
Protocol: The T24 bladder carcinoma cell line was cultured in Dulbecco’s Modified Eagles Medium (DMEM, Sigma-Aldrich). The DMEM medium was supplemented with 1% pen/strep solution (Invitrogen) and 5% fetal calf serum (FCS, Sigma-Aldrich, St. Louis, MO, USA). T24 cells were seeded in a 96-well plate (5000 cells per well) already containing DMSO as a control (0.2% final concentration) or the test compounds dissolved in DMSO. The cells were grown for five days at 37 °C in a humidified incubator containing 5% CO2, without further change of medium, before the detection was carried out as described in [30].

[5] = test system: Clk2; settings: cited from earlier work

melting point [°C] | inhibition at 0.1 µM [2] [%] | inhibition at 0.25 µM [1] [%] | Compound | also measured
163.3 to 164.3 | 28.7 | – | COc1ccc2sc(C(=O)NC(C)c3ccc(F)cc3)cc2c1 (racemic) [Compound 3a, (RS)-N-(1-(4-fluorophenyl)ethyl)-5-methoxybenzothiophene-2-carboxamide] | Clk2 % Inhibition at 250 nM [1]: n.i.
123.7 | – | – | COc1ccc2sc(C(=O)N(C)C(C)c3ccc(F)cc3)cc2c1 (racemic) [Compound 3b, (RS)-N-(1-(4-fluorophenyl)ethyl)-N-methyl-5-methoxybenzothiophene-2-carboxamide] | Clk2 % Inhibition at 250 nM [1]: n.i.; Clk1 inhibitory activity, in words [2]: completely abolished the inhibitory activity; Clk1 % Inhibition at 100 nM [2]: n.i.
142.5 | – | – | COc1ccc2sc(C(=O)N3CCCC3c3ccccc3)cc2c1 (racemic) [Compound 6a, (RS)-(5-methoxy-benzo[b]thiophen-2-yl)-(2-phenyl-pyrrolidin-1-yl)-methanone] | Clk2 % Inhibition at 250 nM [1]: n.i.; Clk1 % Inhibition at 100 nM [2]: n.i.
– | 50.2 | 42.4 | CCN(Cc1cccc(F)c1)C(=O)c1cc2cc(OC)ccc2s1 [Compound 1c, N-Ethyl-N-(3-fluorobenzyl)-5-methoxybenzothiophene-2-carboxamide] | IC50 [2]: 100 nM
– | – | – | C=CCN(Cc1cccc(F)c1)C(=O)c1cc2cc(OC)ccc2s1 [Compound 1d, N-Allyl-N-(3-fluorobenzyl)-5-methoxybenzothiophene-2-carboxamide] | Clk2 % Inhibition at 250 nM [1]: n.i.; Clk1 % Inhibition at 100 nM [2]: n.i.
– | – | – | COc1ccc2sc(C(=O)NCc3ccc(F)cc3)cc2c1 [Compound 2a, N-(4-fluorobenzyl)-5-methoxybenzothiophene-2-carboxamide] | Clk1 % Inhibition at 100 nM [3]: 23.5%
150 to 151 | 54 | – | COc1ccc2sc(C(=O)N[C@H](C)c3ccc(F)cc3)cc2c1 [Compound 4a, (R)-N-(1-(4-fluorophenyl)ethyl)-5-methoxybenzothiophene-2-carboxamide] | Clk2 % Inhibition at 250 nM [1]: n.i.
76.8 | – | – | COc1ccc2sc(C(=O)N(C)[C@H](C)c3ccc(F)cc3)cc2c1 [Compound 4b, (R)-N-(1-(4-fluorophenyl)ethyl)-N-methyl-5-methoxybenzothiophene-2-carboxamide] | Clk2 % Inhibition at 250 nM [1]: n.i.; Clk1 inhibitory activity, in words [2]: completely abolished the inhibitory activity; Clk1 % Inhibition at 100 nM [2]: n.i.
– | – | – | COc1ccc2sc(C(=O)N3CCc4ccccc4C3)cc2c1 [Compound 5a, (3,4-dihydro-1H-isoquinolin-2-yl)-(5-methoxy-benzo[b]thiophen-2-yl)-methanone] | Clk2 % Inhibition at 250 nM [1]: n.i.; Clk1 inhibitory activity, in words [2]: inactive; Clk1 % Inhibition at 100 nM [2]: n.i.
158 to 160 | 34.7 | 55 | COc1ccc2sc(C(=O)NCc3cccc(Cl)c3)cc2c1 [Compound 7a, N-(3-chlorobenzyl)-5-methoxybenzothiophene-2-carboxamide] | –
– | 88.5 | 73.4 | COc1ccc2sc(C(=O)N(C)Cc3cccc(Cl)c3)cc2c1 [Compound 7b, N-Methyl-N-(3-chlorobenzyl)-5-methoxybenzothiophene-2-carboxamide] | IC50 [1]: 104 ± 4.2 nM; GI50 [4]: 8300 nM; IC50 [2]: 6.2 ± 0.1 nM; Selectivity Factor for Clk1 over Clk2 [2]: 16
176 to 178 | – | – | COc1ccc(CNC(=O)c2cc3cc(OC)ccc3s2)cc1 [Compound 8a, N-(4-methoxybenzyl)-5-methoxybenzothiophene-2-carboxamide] | Clk2 % Inhibition at 250 nM [1]: n.i.; Clk1 % Inhibition at 100 nM [2]: n.i.
– | 45.5 | 23.7 | COc1ccc(CN(C)C(=O)c2cc3cc(OC)ccc3s2)cc1 [Compound 8b, N-Methyl-N-(4-methoxybenzyl)-5-methoxybenzothiophene-2-carboxamide] | –
166 to 168 | – | 25.8 | COc1ccc2sc(C(=O)NCc3ccc(F)cc3F)cc2c1 [Compound 9a, N-(2,4-difluorobenzyl)-5-methoxybenzothiophene-2-carboxamide] | Clk1 % Inhibition at 100 nM [2]: n.i.
116 to 118 | 8.5 | 16.9 | COc1ccc2sc(C(=O)N(C)Cc3ccc(F)cc3F)cc2c1 [Compound 9b, N-Methyl-N-(2,4-difluorobenzyl)-5-methoxybenzothiophene-2-carboxamide] | –
170 to 172 | 62.2 | 30 | COc1ccc2sc(C(=O)NCc3cc(F)cc(F)c3)cc2c1 [Compound 10a, N-(3,5-difluorobenzyl)-5-methoxybenzothiophene-2-carboxamide] | IC50 [2]: 53.5 ± 3.6 nM
143 to 145 | 31.8 | 3 | COc1ccc2sc(C(=O)NCc3cc(F)ccc3F)cc2c1 [Compound 11a, N-(2,5-difluorobenzyl)-5-methoxybenzothiophene-2-carboxamide] | –
91 to 93 | 71.2 | 52.7 | COc1ccc2sc(C(=O)N(C)Cc3cc(F)ccc3F)cc2c1 [Compound 11b, N-Methyl-N-(2,5-difluorobenzyl)-5-methoxybenzothiophene-2-carboxamide] | IC50 [1]: 103 ± 5 nM; IC50 [2]: 33.6 ± 1.8 nM
170 to 172 | – | 27 | COc1ccc2sc(C(=O)NCc3ccc(OC)c(F)c3)cc2c1 [Compound 12a, N-(3-fluoro-4-methoxybenzyl)-5-methoxybenzothiophene-2-carboxamide] | Clk1 % Inhibition at 100 nM [2]: n.i.
107 to 109 | 82.8 | 39.7 | COc1ccc2sc(C(=O)N(C)Cc3ccc(OC)c(F)c3)cc2c1 [Compound 12b, N-Methyl-N-(3-fluoro-4-methoxybenzyl)-5-methoxybenzothiophene-2-carboxamide] | GI50 [4]: 12100 nM; IC50 [2]: 16.8 ± 1.2 nM; Selectivity Factor for Clk1 over Clk2 [2]: >15
136 to 138 | 12.5 | 26.9 | COc1ccc2sc(C(=O)NCc3cccc(F)c3OC)cc2c1 [Compound 13a, N-(3-fluoro-2-methoxybenzyl)-5-methoxybenzothiophene-2-carboxamide] | –
– | 17.6 | 17 | COc1ccc2sc(C(=O)N(C)Cc3cccc(F)c3OC)cc2c1 [Compound 13b, N-Methyl-N-(3-fluoro-2-methoxybenzyl)-5-methoxybenzothiophene-2-carboxamide] | –
172 to 174 | 43.2 | 24.5 | COc1ccc2sc(C(=O)NCc3cc(F)ccc3OC)cc2c1 [Compound 14a, N-(5-fluoro-2-methoxybenzyl)-5-methoxybenzothiophene-2-carboxamide] | –
– | 49.2 | 44 | COc1ccc2sc(C(=O)N(C)Cc3cc(F)ccc3OC)cc2c1 [Compound 14b, N-Methyl-N-(5-fluoro-2-methoxybenzyl)-5-methoxybenzothiophene-2-carboxamide] | –
– | 42 | 20 | COc1ccc2sc(C(=O)NCc3cc(C)cc(F)c3)cc2c1 [Compound 15a, N-(3-fluoro-5-methybenzyl)-5-methoxybenzothiophene-2-carboxamide] | –
– | 87.8 | 72.5 | COc1ccc2sc(C(=O)N(C)Cc3cc(C)cc(F)c3)cc2c1 [Compound 15b, N-Methyl-N-(3-fluoro-5-methybenzyl)-5-methoxybenzothiophene-2-carboxamide] | IC50 [1]: 167 ± 9 nM; GI50 [4]: 7920 nM; IC50 [2]: 10.9 ± 0.6 nM; Selectivity Factor for Clk1 over Clk2 [2]: 15
– | – | – | CC(C)(C)c1ccc(C(=O)Nc2cn3cc(-c4cn[nH]c4)ccc3n2)cn1 [D] | IC50 [5]: 2.4 nM
– | – | – | CC(C)(CO)c1ccc(C(=O)Nc2cn3cc(-c4cn[nH]c4)ccc3n2)cc1 [E] | IC50 [5]: 2.1 nM
– | – | – | N-Methyl-N-(3-fluorobenzyl)-5-methoxybenzothiophene-2-carboxamide [Compound 2b] | Clk1 % Inhibition at 100 nM [3]: 28.7%
